We go through 15 molecules from US7935819B2, “Cyclic urea derivatives, preparation thereof and pharmaceutical use thereof as kinase inhibitors” (Aventis Pharma S.A., priority 2006, dated 2011).

Experiment [1] has as its target T1, IGF-1R (human cytoplasmic domain fused with GST) (Homo sapiens, UniProt P08069).
T1 construct: The human cytoplasmic domain of IGF-1R was cloned by fusion with glutathione S-transferase (GST); made in house; host or cells: SF21 insect cells (baculovirus, pFastBac-GST)
In words: Kinase IGF-1R test (Test A): inhibition of autophosphorylation of the enzyme, HTRF. Type of experiment: biochemical. To be noted: 120 μM ATP. The procedure:
A) Experimental Protocol for the Kinase IGF-1R Test:
The inhibitory activity of the compounds on IGF1R is determined by measuring the inhibition of autophosphorylation of the enzyme using a time-resolved fluorescence test (HTRF). The human cytoplasmic domain of IGF-1R was cloned by fusion with glutathione S-transferase (GST) in the baculovirus expression vector pFastBac-GST. The protein is expressed in the SF21 cells and purified to about 80% homogeneity. For the enzymatic test, the test compound at 10 mM dissolved in DMSO is diluted in 1/3 steps in a 50 mM Hepes, pH 7.5, 5 mM MnCl2, 50 mM NaCl, 3% Glycerol, 0.025% Tween 20 buffer. To measure the inhibition, the successive dilutions of the compound are preincubated for 30 minutes and 90 minutes in the presence of 5 nM of enzyme, the final DMSO concentration not exceeding 1%. The enzymatic reaction is initiated to have a final ATP concentration of 120 μM, and is stopped after 5 minutes by addition of 100 mM Hepes, pH 7.0 buffer containing 0.4 M of potassium fluoride, 133 mM EDTA, 0.1% BSA, the XL665-labelled antibody anti-GST and the anti-phosphotyrosine antibody conjugated to europium cryptate Eu—K (Cis-Bio Int.). The characteristics of the two fluorophores, XL-665 and Eu—K, are available in G. Mathis et al., Anticancer Research, 1997, 17, pages 3011-3014. The energy transfer between the excited europium cryptate to the acceptor XL665 is proportional to the degree of autophosphorylation of IGF-1R. The specific long-lasting signal of XL-665 is measured in a GENios Pro TECAN plate counter. The inhibition of autophosphorylation of IGF-1R at time 30 minutes and 90 minutes with the test compounds of the invention is calculated relative to a 1% in DMSO control, whose activity is measured in the absence of compound. The curve representing the percentage of inhibition as a function of the log of the concentration is established to determine the concentration corresponding to 50% inhibition (IC50).
(In general: In TR-FRET formats the signal depends on donor and acceptor labels being close together.)

Experiment [2] concerns the target MEF-IGF1R cells (stable clone transfected with hIGF-1R) (Homo sapiens, UniProt P08069). In words: Proliferation/viability of MEF-IGF1R (Test C), [14C]thymidine incorporation. The following applies: rhIGF1 100 ng/mL, 72 hours, read-out: Test C IC50. In kind it is cell-based. The procedure:
C) Measurement of the Proliferation/Viability of MEF-IGF1R
Cell culture: the MEF-IGF1R cells (stable clone of cells transfected with the receptor hIGF-1R) are cultured at 37° C. under 5% CO2 in EMEM medium containing 10% FCS.
Test procedure: the cells are seeded at 5000 cells per well in 96-well Cytostar plates (Amersham) with 0.2 mL of EMEM culture medium at 37° C. for 18 hours. The cells are then washed twice with EMEM medium and left to culture without serum for 24 hours. The compounds are then added at various concentrations in the presence of rhIGF1 (100 ng/mL) and 0.1 μCi of Thymidine [^14C] (specific activity ˜50 mCi/mmol) to give 0.2 mL of volume per well. After incubation for 72 hours in the presence of the compound, at 37° C. under 5% CO2, the incorporation of Thymidine [^14C] is measured by counting the radioactivity on a Microbeta trilux counter (Perkin-Elmer). The IC50 is determined from 10 increasing concentrations of the compound.
(i) The tests are performed in duplicate and the mean of the two tests is calculated.
(ii) The value of the signal of the maximum response is calculated from the positive control: cells stimulated with IGF1 without compound.
(iii) Value of the signal of the minimum response is calculated from the negative control: cells not stimulated with IGF1 without compound.
(iv) By using these values as maximum (100%) and minimum (0%), respectively, the data were normalized so as to give a percentage of the maximum response.
(v) A curve of dose response is plotted and the IC50 (the concentration of which the compound induces a 50% decrease in the signal) of the compound is calculated by non-linear regression analysis.

The mark [3] stands for this setting: preincubation with enzyme 30 minutes, read-out: Test A 30′ IC50.
Setting [4] is: preincubation with enzyme 90 minutes, read-out: Test A 90′ IC50.

pIC50: −log10 of the molar value. Where two headings read alike, the source gives them in different places.

T1 sequence (P08069 960-1367 limits assumed): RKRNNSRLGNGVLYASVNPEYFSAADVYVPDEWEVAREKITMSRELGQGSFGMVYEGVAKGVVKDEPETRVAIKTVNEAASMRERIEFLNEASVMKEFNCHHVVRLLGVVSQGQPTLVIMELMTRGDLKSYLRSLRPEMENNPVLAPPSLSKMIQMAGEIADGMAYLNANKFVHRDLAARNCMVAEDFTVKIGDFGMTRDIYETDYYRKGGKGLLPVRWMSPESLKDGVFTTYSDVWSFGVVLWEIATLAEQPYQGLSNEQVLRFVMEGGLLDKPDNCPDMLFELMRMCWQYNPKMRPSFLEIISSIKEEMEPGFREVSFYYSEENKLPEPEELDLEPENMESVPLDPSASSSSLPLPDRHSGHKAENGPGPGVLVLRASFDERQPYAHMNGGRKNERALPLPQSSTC
Sequence of MEF-IGF1R cells (stable clone transfected with hIGF-1R) (P08069 whole entry, change not shown): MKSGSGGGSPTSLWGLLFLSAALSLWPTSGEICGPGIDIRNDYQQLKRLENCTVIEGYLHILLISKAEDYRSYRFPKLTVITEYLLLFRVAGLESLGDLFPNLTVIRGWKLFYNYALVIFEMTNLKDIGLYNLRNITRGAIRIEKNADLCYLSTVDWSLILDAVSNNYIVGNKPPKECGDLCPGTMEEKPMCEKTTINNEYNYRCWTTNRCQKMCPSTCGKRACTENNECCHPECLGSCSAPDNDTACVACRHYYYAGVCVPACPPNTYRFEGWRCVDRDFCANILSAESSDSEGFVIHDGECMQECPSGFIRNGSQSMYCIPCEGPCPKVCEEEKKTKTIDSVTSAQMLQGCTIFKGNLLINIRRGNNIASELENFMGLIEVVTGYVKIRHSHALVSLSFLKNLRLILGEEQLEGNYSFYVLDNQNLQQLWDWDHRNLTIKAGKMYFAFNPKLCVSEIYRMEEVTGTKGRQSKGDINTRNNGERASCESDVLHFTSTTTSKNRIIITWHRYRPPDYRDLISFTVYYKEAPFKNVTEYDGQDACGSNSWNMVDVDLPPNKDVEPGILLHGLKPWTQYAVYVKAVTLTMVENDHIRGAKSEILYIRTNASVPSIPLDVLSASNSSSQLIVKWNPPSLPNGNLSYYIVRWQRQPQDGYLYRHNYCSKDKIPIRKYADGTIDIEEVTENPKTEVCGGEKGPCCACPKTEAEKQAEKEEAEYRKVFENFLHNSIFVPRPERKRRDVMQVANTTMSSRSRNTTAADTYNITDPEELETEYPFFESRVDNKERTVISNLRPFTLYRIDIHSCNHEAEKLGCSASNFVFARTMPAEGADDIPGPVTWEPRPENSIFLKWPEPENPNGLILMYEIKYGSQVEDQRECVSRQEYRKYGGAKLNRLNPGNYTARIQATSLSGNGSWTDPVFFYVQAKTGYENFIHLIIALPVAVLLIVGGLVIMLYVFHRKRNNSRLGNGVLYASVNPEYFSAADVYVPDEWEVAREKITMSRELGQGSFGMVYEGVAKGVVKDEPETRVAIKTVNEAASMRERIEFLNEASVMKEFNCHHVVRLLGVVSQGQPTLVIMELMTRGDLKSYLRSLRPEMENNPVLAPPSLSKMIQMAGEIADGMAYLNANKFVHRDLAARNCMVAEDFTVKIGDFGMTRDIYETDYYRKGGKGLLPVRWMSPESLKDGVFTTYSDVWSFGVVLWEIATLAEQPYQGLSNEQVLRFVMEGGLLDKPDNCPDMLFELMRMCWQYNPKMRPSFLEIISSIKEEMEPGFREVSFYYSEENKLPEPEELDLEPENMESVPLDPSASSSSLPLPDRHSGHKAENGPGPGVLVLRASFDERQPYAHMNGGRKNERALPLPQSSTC

For orientation: pIC50 means the IC50 on a negative log10 scale, so that one unit is a factor of ten. Consider `CC(C)(C)c1ccc(N2C(=O)N(Cc3ccnc(N)n3)C(C)(C)C2=O)cc1` [Example 1 Stage f), 1-[(2-aminopyrimidin-4-yl)methyl]-3-(4-tert-butylphenyl)-5,5-dimethylimidazolidine-2,4-dione], for which the pIC50 in experiment [1] (setting [3]) and in experiment [1] (setting [4]) was 7.00 to 8.00 each time. Moreover, the GI50 in experiment [2] was over 100 nM.
Regarding `CN(C)C(=O)Nc1nccc(CN2C(=O)N(c3ccc(C(C)(C)C)cc3)C(=O)C2(C)C)n1` [Example 2, 3-(4-{[3-(4-tert-butylphenyl)-5,5-dimethyl-2,4-dioxoimidazolidin-1-yl]methyl}pyrimidin-2-yl)-1,1-dimethylurea], the pIC50 in experiment [1] (setting [3]) and in experiment [1] (setting [4]) was under 7.00 each time. Besides, the GI50 in experiment [2] is over 100 nM.
Consider `CN(C)C(=O)Nc1cc(CN2C(=O)N(c3ccc4c(c3)N(C(=O)CNC3CCCC3)CC4(C)C)C(=O)C2(C)C)ccn1` [Example 3, 3-[4-({3-[1-(N-cyclopentylglycyl)-3,3-dimethyl-2,3-dihydro-1H-indol-6-yl]-5,5-dimethyl-2,4-dioxoimidazolidin-1-yl}methyl)pyridin-2-yl]-1,1-dimethylurea], for which the pIC50 in experiment [1] (setting [3]) was under 7.00; in experiment [1] (setting [4]), 7.00 to 8.00. Moreover, the GI50 in experiment [2] lay in the range of 10 to 100 nM.
Taken in the same sequence, the figures for `CC1(C)CN(C(=O)CNC2CCCC2)c2cc(N3C(=O)N(Cc4ccnc(Nc5cccnc5)c4)C(C)(C)C3=O)ccc21` [Example 4, 3-[1-(N-cyclopentylglycyl)-3,3-dimethyl-2,3-dihydro-1H-indol-6-yl]-5,5-dimethyl-1-{[2-(pyridin-3-ylamino)pyridin-4-yl]methyl}imidazolidine-2,4-dione] were 7.00 to 8.00, 7.00 to 8.00 and under 10 nM.
In the same order, the values of `CC1(C)C(=O)N(c2ccc(OC(F)(F)F)c(NC(=O)[C@H](N)c3ccccc3)c2)C(=O)N1Cc1ccnc(Nc2cccnc2)c1` [Example 5a, (2R)-2-amino-N-[5-(4,4-dimethyl-2,5-dioxo-3-{[2-(pyridin-3-ylamino)pyridin-4-yl]methyl}imidazolidin-1-yl)-2-(trifluoromethoxy)phenyl]-2-phenylacetamide] are 7.00 to 8.00, 7.00 to 8.00 and under 10 nM.
Taken in the same sequence, the figures for `CN(C)C(=O)Nc1cc(CN2C(=O)N(c3ccc(OC(F)(F)F)c(NC(=O)[C@H](N)c4ccccc4)c3)C(=O)C2(C)C)ccn1` [Example 6a, (2R)-2-amino-N-{5-[3-({2-[(dimethylcarbamoyl)amino]pyridin-4-yl}methyl)-4,4-dimethyl-2,5-dioxoimidazolidin-1-yl]-2-(trifluoromethoxy)phenyl}-2-phenylacetamide] were under 7.00, 7.00 to 8.00 and under 10 nM.
In the case of `CC(C)(C)c1ccc(N2C(=O)N(Cc3ccnc(Nc4cncnc4)c3)C(C)(C)C2=O)cc1` [Example 7, 3-(4-tert-butylphenyl)-5,5-dimethyl-1-{[2-(pyrimidin-5-ylamino)pyridin-4-yl]methyl}imidazolidine-2,4-dione], the pIC50 in experiment [1] (setting [3]) and in experiment [1] (setting [4]) was 7.00 to 8.00 each time. Further, the GI50 in experiment [2] is over 100 nM.
As for `CC(C)(C)c1ccc(N2C(=O)N(Cc3ccnc(NC(=O)NCCCN4CCCC4)c3)C(C)(C)C2=O)cc1` [Example 9, 1-(4-{[3-(4-tert-butylphenyl)-5,5-dimethyl-2,4-dioxoimidazolidin-1-yl]methyl}pyridin-2-yl)-3-(3-pyrrolidin-1-ylpropyl)urea], the pIC50 in experiment [1] (setting [3]) and in experiment [1] (setting [4]) was 7.00 to 8.00 each time. Besides, in experiment [2], the GI50 was over 100 nM.
Consider `CC(C)(C)c1ccc(N2C(=O)N(Cc3ccnc(NC(=O)NC4CCCC4)c3)C(C)(C)C2=O)cc1` [Example 10, 1-(4-{[3-(4-tert-butylphenyl)-5,5-dimethyl-2,4-dioxoimidazolidin-1-yl]methyl}pyridin-2-yl)-3-cyclopentylurea], for which the negative logarithm of the IC50 (pIC50) in experiment [1] (setting [3]) and in experiment [1] (setting [4]) was 7.00 to 8.00 in each case. The GI50 in experiment [2] was over 100 nM.
As to `CC(C)(C)c1ccc(N2C(=O)N(Cc3ccnc(NC(=O)NCCN4CCCC4)c3)C(C)(C)C2=O)cc1` [Example 11, 1-(4-{[3-(4-tert-butylphenyl)-5,5-dimethyl-2,4-dioxoimidazolidin-1-yl]methyl}pyridin-2-yl)-3-(2-pyrrolidin-1-ylethyl)urea], the negative logarithm of the IC50 (pIC50) in experiment [1] (setting [3]) and in experiment [1] (setting [4]) was 7.00 to 8.00 each time. In addition, in experiment [2], the GI50 was over 100 nM.
In the case of `CC(C)(C)c1ccc(N2C(=O)N(Cc3ccnc(NC(=O)NCCCCN4CCCC4)c3)C(C)(C)C2=O)cc1` [Example 12, 1-(4-{[3-(4-tert-butylphenyl)-5,5-dimethyl-2,4-dioxoimidazolidin-1-yl]methyl}pyridin-2-yl)-3-(4-pyrrolidin-1-ylbutyl)urea], the results for the pIC50 in experiment [1] (setting [3]) and in experiment [1] (setting [4]) were 7.00 to 8.00 and over 8.00, respectively. Besides, the GI50 in experiment [2] was over 100 nM.
With `CC(C)(C)c1ccc(N2C(=O)N(Cc3ccnc(NC(=O)NC4CCCCC4)c3)C(C)(C)C2=O)cc1` [Example 16, 1-(4-{[3-(4-tert-butylphenyl)-5,5-dimethyl-2,4-dioxoimidazolidin-1-yl]methyl}pyridin-2-yl)-3-cyclohexylurea], the pIC50 is under 7.00 in experiment [1] (setting [3]) and 7.00 to 8.00 in experiment [1] (setting [4]). The GI50 in experiment [2] was over 100 nM.
In the case of `CC(C)(C)c1ccc(N2C(=O)N(Cc3ccnc(NC(=O)N4CCOCC4)c3)C(C)(C)C2=O)cc1` [Example 20, N-(4-{[3-(4-tert-butylphenyl)-5,5-dimethyl-2,4-dioxoimidazolidin-1-yl]methyl}pyridin-2-yl)morpholine-4-carboxamide], the pIC50 in experiment [1] (setting [3]) is 7.00 to 8.00; in experiment [1] (setting [4]), over 8.00. In addition, the GI50 in experiment [2] is over 100 nM.
In the same order, the values of `CCCCN(C)C(=O)Nc1cc(CN2C(=O)N(c3ccc(C(C)(C)C)cc3)C(=O)C2(C)C)ccn1` [Example 27, 1-butyl-3-(4-{[3-(4-tert-butylphenyl)-5,5-dimethyl-2,4-dioxoimidazolidin-1-yl]methyl}pyridin-2-yl)-1-methylurea] are 7.00 to 8.00, 7.00 to 8.00 and over 100 nM.
As for `CC(C)(C)c1ccc(N2C(=O)N(Cc3ccnc(Nc4cncc(F)c4)c3)C(C)(C)C2=O)cc1` [Example 31A, 3-(4-tert-butylphenyl)-1-({2-[(5-fluoropyridin-3-yl)amino]pyridin-4-yl}methyl)-5,5-dimethylimidazolidine-2,4-dione], the negative logarithm of the IC50 (pIC50) in experiment [1] (setting [3]) and in experiment [1] (setting [4]) was 7.00 to 8.00 in each case. Moreover, the GI50 in experiment [2] was over 100 nM.
